Assay results reported in US20250120987A1, “METHOD FOR TREATING CANCER USING HUMAN MIT[…] ENZYME 2 INHIBITOR” (priority 2023, published 2025).

Columns and labels:
[1] = test system: THP-1 cells; experiment: Oxygen consumption rate of AML cells; assay type: cell-based, human; conditions: 150 μM
[2] = test system: THP-1 cells; experiment: Cell survival assay; assay type: cell-based, human
Protocol: (§1) In the following assay, therefore, the NazEA dosage of 150 μM was used.

[3] = test system: MV4-11 cells; experiment: Cell survival assay; assay type: cell-based, human
Protocol: as §1

[4] = test system: HL-60 cells; experiment: Cell survival assay; assay type: cell-based, human
Protocol: as §1

[5] = test system: MV4-11 cells; experiment: Oxygen consumption rate of AML cells; assay type: cell-based, human; conditions: 150 μM
[6] = test system: HL-60 cells; experiment: Mass spectrometric analysis of metabolic intermediates; assay type: cell-based, human; conditions: 150 μM, UPLC-MS
Protocol: The Na2EA-treated HL-60 cells (1×10^7 cells) and the HL-60 cells untreated with NazEA (1×10^7 cells) in example 10 were taken, added into 1 mL of 80% methanol, and centrifuged at 4° C. and 12,000×g for 10 minutes. After the supernatants were evaporated with nitrogen gas, an analysis was performed using a Waters ultra-high performance liquid chromatograph coupled with Waters Xevo TQ-S MS (Waters Corp. Milford, MA, USA).

[7] = test system: MV4-11 cells; experiment: Animal test, ASID mice transplanted with MV4-11 cells; assay type: in vivo; conditions: 4 mg/kg, intravenous, day 21
Protocol: (§2) A plurality of 8-week-old ASID mice (or mice with advanced severe immunodeficiency, or more specifically NOD.Cg-Prkde^scidIl2rg^tm1Wjl/YckNarl mice) were randomly divided into 6 groups. Each group of mice was intravenously injected with one of a plurality of differently treated AML cell variants at a frequency of 5 days per week for 4 weeks. The AML cell variants injected into the 6 groups of mice are as follows: • Group 1-1: THP-1 cells • Group 2-1: THP-1 cells with EA (at a dosage of 4 mg/kg) • Group 3-1: THP-1 cells with Na2EA (at a dosage of 4 mg/kg) • Group 1-2: MV4-11 cells • Group 2-2: MV4-11 cells with EA (at a dosage of 4 mg/kg) • Group 3-2: MV4-11 cells with Na2EA (at a dosage of 4 mg/kg)
(§3) On the 21st day of the test, peripheral blood was collected from the submandibular vein of the mice, and bone marrow was collected as well. The blood and bone marrow were stained with specific markers (CD33 and CD45) and then reacted with a fluorescent antibody, before the CD33+ or CD45^+-stained cells were quantified with a flow cytometer.

[8] = test system: HL-60 cells; experiment: Oxygen consumption rate of AML cells; assay type: cell-based, human; conditions: 150 μM
[9] = test system: THP-1 cells; experiment: Apoptosis rate (Annexin V, flow cytometer); assay type: cell-based, human; conditions: 150 μM
Protocol: (§4) HL-60 cells, THP-1 cells, and MV4-11 cells were each divided into two groups, namely a vehicle group to be cultured in an RPMI culture medium and a group to be cultured in an RPMI culture medium containing 150 μM Na2EA. After culturing for 24 hours, the culture media were renewed. After culturing for another 48 hours, a commercially available apoptosis detection kit (Annexin V Apoptosis Detection Kit) and flow cytometer were used to analyze the apoptosis rates of the cells, and the results are shown in FIG. 34. In addition, a commercially available cell viability assay kit (CellTiter-Glo® 2.0 Cell Viability Assay Kit), a NAD/NADH-Glo™ assay kit, a commercially available intracellular ROS assay kit (#cat.MAK143, Sigma-Aldrich, St. Louis, MO, USA), and a commercially available pyruvate colorimetric/fluorometric assay kit were used to analyze the NADPH, ROS, and ATP contents of each group of cells, and the results are shown in FIG. 35 to FIG. 37.

[10] = test system: MV4-11 cells; experiment: Apoptosis rate (Annexin V, flow cytometer); assay type: cell-based, human; conditions: 150 μM
Protocol: as §4

[11] = test system: HL-60 cells; experiment: Apoptosis rate (Annexin V, flow cytometer); assay type: cell-based, human; conditions: 150 μM
Protocol: as §4

[12] = test system: THP-1 cells; experiment: Metabolite contents of AML cells (NADPH, ROS, ATP, pyruvate, NADH, glutamic acid); assay type: cell-based, human; conditions: 150 μM
Protocol: as §4
(§5) Furthermore, the cells in each group were stained with ATP-Red Live Cell Dye (BioTracker™ ATP-Red Live Cell Dye) and were observed and quantified under a fluorescence microscope, with the quantification results shown in FIG. 38. The oxygen consumption rate of each group of cells was also determined in the same way as in example 6, with the introduction of different stress testing conditions, and the results are shown in FIG. 39 to FIG. 44.
(§6) Besides, the […], pyruvate, NAD^+, NADH, and glutamic acid contents of each group of cells were analyzed with a NAD/NADH-Glo™ assay kit, a commercially available pyruvate colorimetric/fluorometric assay kit, and a commercially available Glutamine/Glutamate-Glo™ assay kit (#Cat. J8021; Promega, Madison, WI, USA) in the same way as in example 9, and the results are shown in FIG. 45 to FIG. 48.

[13] = test system: MV4-11 cells; experiment: as above; assay type: cell-based, human; conditions: 150 μM
Protocol: as §4, §5, §6

[14] = test system: HL-60 cells; experiment: as above; assay type: cell-based, human; conditions: 150 μM
Protocol: as §4, §5, §6

[15] = test system: THP-1 cells; experiment: Animal test, ASID mice transplanted with THP-1 cells; assay type: in vivo; conditions: 4 mg/kg, intravenous, day 21
Protocol: as §2, §3

[16] = target: T1, human ME2 (Homo sapiens, UniProt P23368); experiment: ME2 inhibition test; assay type: biochemical; conditions: for IC50: Table 1, 40 mM L-malate, 2 mM NAD+, 10 mM MgCl2, read-out: IC50 with respect to ME2; for inhibiting the activity of ME2 (in words): summary of Table 1
T1 construct: made in house; host or cells: Escherichia coli BL21

[17] = test system: H1299 cells; experiment: Pyruvate and NADPH content of treated cells; assay type: cell-based, human; conditions: 25 μM, 48 hours, 20 mM L-malate
Protocol: (§7) H1299 cells (3×10^5 cells) were cultured for 24 hours in separate culture media each containing 20 mM L-malate, with the culture environment being at 37° C. and containing 5% carbon dioxide. […]. After that, the cultured cells in each group were collected and were centrifuged in 100 μL of phosphate buffer, and the supernatants were collected. Once the proteins in the supernatants were removed, a pyruvate colorimetric/fluorometric assay kit and a PicoProbe™ NADPH quantification fluorometric assay kit were used to analyze the pyruvate content and NADPH content of the cells respectively (Ex/Em: at 535 nm and 587 nm). […]

[18] = test system: H1299 cells; experiment: ATP and ROS content of treated cells; assay type: cell-based, human; conditions: 150 μM, 48 hours
Protocol: H1299 cells (3×10^5 cells) were cultured in separate culture media each containing 20 mM L-malate. […]. Also, a ROS assay kit (#cat.MAK143, Sigma-Aldrich, St. Louis, MO, USA) was used to analyze the ROS contents of the cells, and the results are shown in FIG. 8. […]

[19] = test system: H1299 cells; experiment: Cell invasion assay (Transwell/Matrigel); assay type: cell-based, human; conditions: 150 μM, 24 hours
Protocol: (§8) […]. A culture medium containing 10% fetal bovine serum was subsequently added to the lower chambers. […] The vehicle groups, which were formed by cells to which no EA or MDSA was added, were provided to enable the calculation of the amount of the cells in each EA or MDSA-treated group in relation to the amount of the cells in the corresponding vehicle group at the end of the assay so that changes in the relative amounts of cells can be observed with ease.

[20] = test system: MCF-7 cells; experiment: Cell invasion assay (Transwell/Matrigel); assay type: cell-based, human; conditions: 150 μM, 24 hours
Protocol: as §8

[21] = test system: MCF-7 cells; experiment: Seahorse XF cell mito stress test (oxygen consumption rate); assay type: cell-based, human
Protocol: (§9) Finally, a Seahorse XFe24 analyzer was used to perform a Seahorse XF cell mito stress test on the cells to obtain the oxygen consumption rates (OCR) of the cells, and the test results are shown in FIG. 9 to FIG. 18. The control groups were formed by cells to which no EA or MDSA was added.

[22] = test system: MCF-7 cells; experiment: Pyruvate and NADPH content of treated cells; assay type: cell-based, human; conditions: 25 μM, 48 hours
Protocol: as §7
In addition, MCF-7 cells (6×10^5 cells) were cultured in the same way as the H1299 cells and had their pyruvate content and NADPH content analyzed.

[23] = test system: H1299 cells; experiment: Seahorse XF cell mito stress test (oxygen consumption rate); assay type: cell-based, human; conditions: 75 and 150 μM, 3 hours
Protocol: as §9

[24] = test system: MCF-7 cells; conditions: 150 μM, 48 hours
Protocol: (§10) A 24-well plate was inoculated with H1299 cells (1.5×10^5 cells) and MCF-7 cells (3.0×10^5 cells), and the cells were cultured in a 37° C. and 5% carbon dioxide environment for 24 hours in order for a confluent monolayer of cells to be formed. After that, the culture medium was removed, and the cells were washed with a phosphate buffer. […] Cell migration was observed under an automated microscope, and a quantitative analysis of cells was performed at the same time.

[25] = test system: H1299 cells; conditions: 150 μM, 48 hours
Protocol: as §10

T1 sequence (P23368 19-584): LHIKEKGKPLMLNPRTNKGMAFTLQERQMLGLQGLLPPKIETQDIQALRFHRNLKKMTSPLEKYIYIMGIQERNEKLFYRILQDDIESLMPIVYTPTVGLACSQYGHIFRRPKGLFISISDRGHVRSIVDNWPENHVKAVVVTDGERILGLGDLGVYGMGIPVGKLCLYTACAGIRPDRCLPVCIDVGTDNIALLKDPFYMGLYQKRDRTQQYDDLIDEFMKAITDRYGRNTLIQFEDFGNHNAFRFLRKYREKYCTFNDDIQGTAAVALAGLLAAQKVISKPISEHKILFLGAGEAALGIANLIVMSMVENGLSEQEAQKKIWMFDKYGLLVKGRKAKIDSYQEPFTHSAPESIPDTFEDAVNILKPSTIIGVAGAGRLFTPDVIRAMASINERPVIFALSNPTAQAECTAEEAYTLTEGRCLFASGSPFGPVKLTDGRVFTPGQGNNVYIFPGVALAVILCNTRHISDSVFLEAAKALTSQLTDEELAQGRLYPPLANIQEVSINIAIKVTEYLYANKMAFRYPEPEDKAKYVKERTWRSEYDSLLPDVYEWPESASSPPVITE

## O=C(O)c1cc2ccccc2c(Cc2c([O-])c(C(=O)O)cc3ccccc23)c1[O-].[Na+].[Na+] [Na2EA, disodium embonate]
[1]
  mitochondrial proton leak: lowered
  oxygen consumption rate: lowered
  yield of ATP by the mitochondrial electron transport chains: lowered
[2]
  IC50: ~120 µM
[3]
  IC50: ~120 µM
[4]
  IC50: ~120 µM
[5]
  mitochondrial proton leak: lowered
  oxygen consumption rate: lowered
  yield of ATP by the mitochondrial electron transport chains: lowered
[6]
  fructose-6-phosphate (F-6-P) content: suppress
  glucose-1-phosphate (G-1-P) content: suppress
  glucose-6-phosphate (G-6-P) content: suppress
  glutamic acid content: increasing
  glutamine content: increasing
[7]
  AML cells in mice (CD33+ / CD45+ stained cells in peripheral blood and bone marrow): reduce
  effectiveness in reducing AML cells compared with EA: more effective in reducing AML cells than EA
[8]
  mitochondrial proton leak: lowered
  oxygen consumption rate: lowered
  yield of ATP by the mitochondrial electron transport chains: lowered
[9]
  apoptosis rate: 60-75%
[10]
  apoptosis rate: 60-75%
[11]
  apoptosis rate: 60-75%
[12]
  ATP content: greatly reduced
  NAD+/NADH ratio: increased
  NADH content: reduced
  NADPH content: greatly reduced
  ROS steady state: destroyed
  glutamic acid content: increased
  pyruvate content: reduced
[13]
  ATP content: greatly reduced
  NAD+/NADH ratio: increased
  NADH content: reduced
  NADPH content: greatly reduced
  ROS steady state: destroyed
  glutamic acid content: increased
  pyruvate content: reduced
[14]
  ATP content: greatly reduced
  NAD+/NADH ratio: increased
  NADH content: reduced
  NADPH content: greatly reduced
  ROS steady state: destroyed
  glutamic acid content: increased
  pyruvate content: reduced
[15]
  AML cells in mice (CD33+ / CD45+ stained cells in peripheral blood and bone marrow): reduce
  effectiveness in reducing AML cells compared with EA: more effective in reducing AML cells than EA

## O=C(O)c1cc2cc(Br)ccc2cc1O [7-bromo-3-hydroxy-2-naphthoic acid]
[16]
  IC50: 308 µM

## O=C(O)c1cccc(C(=O)c2ccccc2)c1 [3-benzoyl-benzoic acid]
[16]
  IC50: 652 µM

## O=C(O)c1cc2ccccc2cc1O [3-hydroxy-2-naphthoic acid]
[16]
  IC50: 105 µM
  inhibiting the activity of ME2 (in words): relatively effective

## O=C(O)c1cc(Cc2ccc(O)c(C(=O)O)c2)ccc1O [MDSA, 5,5′-methylenedisalicylic acid]
[17]
  NADPH content: reduce
  pyruvate content: reduce
[18]
  ATP content: lower
  ROS content: increase
[19]
  cell invasion: inhibit
[20]
  cell invasion: cannot inhibit
[21]
  spare respiratory capacity: remained the same
[22]
  NADPH content: not reduced significantly
  pyruvate content: not reduced significantly
[23]
  ATP generation (mitochondrial electron transport chain): lowered

## O=C(O)c1ccc2ccccc2c1O [1-hydroxy-2-naphthoic acid]
[16]
  IC50: 74.7 µM
  inhibiting the activity of ME2 (in words): relatively effective

## O=C(O)c1cc2cccc(O)c2cc1O [3,5-dihydroxy-2-naphthoic acid]
[16]
  IC50: 12.4 µM
  inhibiting the activity of ME2 (in words): relatively effective

## O=C(O)c1cc2cc(O)ccc2cc1O [3,7-dihydroxy-2-naphthoic acid]
[16]
  IC50: 37.6 µM

## O=C(O)c1ccccc1O [Salicylic acid]
[16]
  IC50: 801 µM

## O=C(O)c1ccc2cc(C(=O)O)ccc2c1 [2,6-dicarboxy naphthalene]
[16]
  IC50: 353 µM

## O=C(O)c1cc2ccccc2c(Cc2c(O)c(C(=O)O)cc3ccccc23)c1O [EA, 4,4′-methylene-bis(3-hydroxy-2-naphthoic acid)]
[17]
  NADPH content: reduce
  pyruvate content: reduce
[18]
  ATP content: lower
  ROS content: increase
[19]
  cell invasion: inhibit
[20]
  cell invasion: cannot inhibit
[24]
  cell migration: cannot inhibit
[7]
  AML cells in mice (CD33+ / CD45+ stained cells in peripheral blood and bone marrow): reduce
[21]
  ATP generation: remained the same
  basal respiration rate: remained the same
  maximum respiration rate: remained the same
  spare respiratory capacity: remained the same
[22]
  NADPH content: not reduced significantly
  pyruvate content: not reduced significantly
[23]
  ATP generation (mitochondrial electron transport chain): reduced
  basal respiration rate: reduced
  maximum respiration rate: reduced
  spare respiratory capacity: reduced
[25]
  cell migration: inhibit
[15]
  AML cells in mice (CD33+ / CD45+ stained cells in peripheral blood and bone marrow): reduce
